Measured values as given in patent publication US8815535B2, “Disk diffusion assay for oritavancin” (The Medicines Company, priority 2011, dated 2014).
Like-named read-outs stand apart in the source and are kept apart here.

Key:
Test in all cases: Disk diffusion assay (zone of inhibition)
VISA Mu50 (ATCC 700699) = type: cell-based, Staphylococcus aureus; settings: for zone of inhibition at 360 µg/disc: ATCC 700699; for zone of inhibition at 100 µg/disc: 100 μg in 4% P80/Span 80 (1:1); for zone of inhibition at 200 µg/disc: 200 μg in 4% P80/Span 80 (1:1)
Source text: The study was designed to identify conditions that improve oritavancin diffusion in agar and consequently yield a zone diameter ≧15 mm for the CLSI quality control strain MSSA ATCC 25923. Excipients that increased the disk diffusion of oritavancin in agar relative to disks containing only oritavancin were identified and selected for further study. […] A prediffusion step at room temperature was introduced to maximize oritavancin diffusion prior to initiation of bacterial growth. […] Plates were then incubated overnight at 37° C. Zone diameters around the disks in which bacterial growth was inhibited were measured with a ruler and reported in millimeters.
(§1) Ethanol-sterilized Whatman paper disks (6 mm diameter) were allowed to dry then impregnated with 20 microliters of oritavancin solution containing total amounts ranging from 90 to 360 micrograms. Disks were allowed to dry at room temperature for various times prior to use.
Bacterial suspensions were prepared and adjusted to an optical density of 0.1 at 600 nm. Standard cation-adjusted Mueller Hinton agar plates (90 mm diameter) were seeded with bacterial suspensions by initially swabbing the center of plate then moving outward towards the edge. The plate was swabbed a second time, perpendicular to the orientation of the first swab. […] After 3 hours, two additional disks were placed on the other half of the plate then the plate was incubated overnight at 37° C. Zone diameters were measured with a ruler and reported in millimeters.
Oritavancin powder was dissolved in freshly-prepared solutions of the indicated excipients at concentrations of 0.625, 1.25, 2.5, 5, and 10 mg/ml (adjusted for potency based on lot 875561L00 purity of 83.1%) by vortexing for a minimum of 5 minutes. Oritavancin solutions in the various excipients, while not visually clear, were free from any apparent particulates as assessed visually. Sterile Oxoid blank disks were impregnated with 20 μl of these oritavancin solutions, resulting in oritavancin disk loads ranging from 12.5 to 200 μg. Unless indicated otherwise, disks were allowed to dry overnight at room temperature prior to use.
Bacterial suspensions from isolated colonies on overnight cation-adjusted Mueller Hinton agar plates were prepared in sterile saline and adjusted to an optical density of 0.1 at 600 nm Standard cation-adjusted Mueller Hinton agar plates (90 mm diameter) were seeded with bacterial suspensions by initially swabbing the center of plate then moving outward. Swabbing was continued at a right angle and then at an oblique angle to the first and second swabs. Disks were placed upon the seeded plates with sterile forceps. Plates were then incubated overnight at 37° C. and inhibition zone diameters were measured with a ruler and reported in millimeters.

hVISA NRS2 = type: cell-based; settings: Staphylococcus aureus, Oxoid disks, 20 μl of 18 mg/ml oritavancin in 5% P80, stored 30 days at room temperature, prediffusion 6 hours at 4° C., read-out: Inhibition zone diameter
MRSA NRS121 = type: cell-based; settings: Staphylococcus aureus, read-out: Zone diameter (mm ± SD), NRS121, 360 μg in 5% P80
Source text: The study was designed to identify conditions that improve oritavancin diffusion in agar and consequently yield a zone diameter ≧15 mm for the CLSI quality control strain MSSA ATCC 25923. Excipients that increased the disk diffusion of oritavancin in agar relative to disks containing only oritavancin were identified and selected for further study. […] A prediffusion step at room temperature was introduced to maximize oritavancin diffusion prior to initiation of bacterial growth. In this step, the antimicrobial disks were placed on agar plates seeded with a bacterial isolate and incubated at room temperature for 3 hours. Plates were then incubated overnight at 37° C. Zone diameters around the disks in which bacterial growth was inhibited were measured with a ruler and reported in millimeters.
as §1
Bacterial suspensions were prepared and adjusted to an optical density of 0.1 at 600 nm. Standard cation-adjusted Mueller Hinton agar plates (90 mm diameter) were seeded with bacterial suspensions by initially swabbing the center of plate then moving outward towards the edge. The plate was swabbed a second time, perpendicular to the orientation of the first swab. To assess the impact of prediffusion on diameter of inhibition zones, two disks were immediately placed on one half of the plate and the plate was incubated for 3 hours at room temperature. After 3 hours, two additional disks were placed on the other half of the plate then the plate was incubated overnight at 37° C. Zone diameters were measured with a ruler and reported in millimeters.

[1] = Staphylococcus aureus, Mu50, calcium alginate swab, dried overnight, read-out: Inhibition zone diameter
[2] = Staphylococcus aureus, Mu50, cotton swab, dried overnight, estimate of diameter

CN[C@H](CC(C)C)C(=O)N[C@H]1C(=O)N[C@@H](CC(N)=O)C(=O)N[C@H]2C(=O)N[C@H]3C(=O)N[C@H](C(=O)N[C@H](C(=O)O)c4cc(O)cc(O)c4-c4cc3ccc4O)[C@H](O[C@H]3C[C@](C)(N)[C@@H](O)[C@H](C)O3)c3ccc(c(Cl)c3)Oc3cc2cc(c3O[C@@H]2O[C@H](CO)[C@@H](O)[C@H](O)[C@H]2O[C@H]2C[C@](C)(NCc3ccc(-c4ccc(Cl)cc4)cc3)[C@@H](O)[C@H](C)O2)Oc2ccc(cc2Cl)[C@H]1O [oritavancin, N-(4-(4-chlorophenyl)benzyl)A82846B]
Inhibition zone diameter (VISA Mu50 (ATCC 700699); Mu50, 12.5 μg in 4% P80/Span 80 (1:1), calcium alginate swab, dried overnight): no zone | Inhibition zone diameter (VISA Mu50 (ATCC 700699); Mu50, 12.5 μg in 4% P80/Span 80 (1:1), cotton swab, dried overnight, estimate of diameter): no zone | Inhibition zone diameter (VISA Mu50 (ATCC 700699); Mu50, 25 μg (20 μl of 1.25 mg/ml) in 4% P80/Span 80 (1:1), calcium alginate swab, dried overnight): no zone | Inhibition zone diameter (VISA Mu50 (ATCC 700699); Mu50, 20 μl of 1.25 mg/ml oritavancin in 5% Brij 30): no zone | zone of inhibition at 360 µg/disc (VISA Mu50 (ATCC 700699); Staphylococcus aureus, 3 h, 360 μg oritavancin, excipient 10% HPCD, disks made same day, 3 h prediffusion, average of 2 disks, read-out: Average zone diameter): 17.3 mm | zone of inhibition at 360 µg/disc (VISA Mu50 (ATCC 700699); Staphylococcus aureus, 192 h, 360 μg in 5% P80, Experiment 2, disks stored 8 days, no prediffusion, read-out: Zone diameter (mm ± SD)): 13 mm | zone of inhibition at 360 µg/disc (VISA Mu50 (ATCC 700699); Staphylococcus aureus, 336 h, 360 μg in 5% P80, Experiment 1, disks stored 14 days, no prediffusion, read-out: Zone diameter (mm ± SD)): 13.5 ± 0.7 mm | zone of inhibition at 360 µg/disc (VISA Mu50 (ATCC 700699); Staphylococcus aureus, 360 μg in 5% P80, Average of experiments, no prediffusion, read-out: Zone diameter (mm ± SD)): 13.3 ± 0.5 mm | zone of inhibition at 360 µg/disc (VISA Mu50 (ATCC 700699); Staphylococcus aureus, 360 μg in 5% P80, Average of experiments, prediffusion, read-out: Zone diameter (mm ± SD)): 14.3 ± 0.3 mm | zone of inhibition at 360 µg/disc (VISA Mu50 (ATCC 700699); Staphylococcus aureus, 360 μg in 5% P80, Experiment 1, disks stored 14 days, 3 h prediffusion at room temperature, read-out: Zone diameter (mm ± SD)): 14.5 mm | zone of inhibition at 360 µg/disc (VISA Mu50 (ATCC 700699); Staphylococcus aureus, 360 μg in 5% P80, Experiment 2, disks stored 8 days, 3 h prediffusion at room temperature, read-out: Zone diameter (mm ± SD)): 14 mm | zone of inhibition at 360 µg/disc (VISA Mu50 (ATCC 700699); Staphylococcus aureus, 360 μg oritavancin, excipient 5% P80, disks stored 5 days at room temperature, 3 h prediffusion, average of 2 disks, read-out: Average zone diameter): 15 mm | zone of inhibition at 25 µg/disc (VISA Mu50 (ATCC 700699); Staphylococcus aureus, Mu50, 25 μg in 4% P80/Span 80 (1:1), cotton swab, dried overnight, estimate of diameter): 7 mm | zone of inhibition at 50 µg/disc (VISA Mu50 (ATCC 700699); Staphylococcus aureus, Mu50, 50 μg in 4% P80/Span 80 (1:1), calcium alginate swab, dried overnight, read-out: Inhibition zone diameter): 7 mm | zone of inhibition at 50 µg/disc (VISA Mu50 (ATCC 700699); Staphylococcus aureus, Mu50, 50 μg in 4% P80/Span 80 (1:1), cotton swab, dried overnight, estimate of diameter): 10 mm | zone of inhibition at 50 µg/disc (VISA Mu50 (ATCC 700699); Staphylococcus aureus, Mu50, 50 μg, 4% P80/Span 80 ratio 50:50, dried overnight, estimate of diameter): 10 mm | zone of inhibition at 50 µg/disc (VISA Mu50 (ATCC 700699); Staphylococcus aureus, Mu50, 50 μg, 4% P80/Span 80 ratio 60:40, dried overnight, estimate of diameter): 11 mm | zone of inhibition at 50 µg/disc (VISA Mu50 (ATCC 700699); Staphylococcus aureus, Mu50, 50 μg, 4% P80/Span 80 ratio 70:30, dried overnight, estimate of diameter): 12 mm | zone of inhibition at 50 µg/disc (VISA Mu50 (ATCC 700699); Staphylococcus aureus, Mu50, 50 μg, 4% P80/Span 80 ratio 80:20, dried overnight, estimate of diameter): 12 mm | zone of inhibition at 50 µg/disc (VISA Mu50 (ATCC 700699); Staphylococcus aureus, Mu50, 50 μg, 4% P80/Span 80 ratio 90:10, dried overnight, estimate of diameter): 12 mm | zone of inhibition at 100 µg/disc (VISA Mu50 (ATCC 700699); [1]): 8 mm | zone of inhibition at 100 µg/disc (VISA Mu50 (ATCC 700699); [2]): 11 mm | zone of inhibition at 200 µg/disc (VISA Mu50 (ATCC 700699); [1]): 8 mm | zone of inhibition at 200 µg/disc (VISA Mu50 (ATCC 700699); [2]): 10 mm | zone of inhibition at 1250 µg/mL (VISA Mu50 (ATCC 700699); Staphylococcus aureus, Mu50, 20 μl of 1.25 mg/ml oritavancin in 1% poly(ethylene glycol) sorbitol hexaoleate, read-out: Inhibition zone diameter): 8 mm | zone of inhibition at 1250 µg/mL (VISA Mu50 (ATCC 700699); Staphylococcus aureus, Mu50, 20 μl of 1.25 mg/ml oritavancin in 5% Merpol SE, read-out: Inhibition zone diameter): 9 mm | zone of inhibition at 18000 µg/mL (hVISA NRS2): 16.5 mm | zone of inhibition at 360 µg/disc (MRSA NRS121; 192 h, Experiment 2, disks stored 8 days, no prediffusion): 15 mm | zone of inhibition at 360 µg/disc (MRSA NRS121; Average, no prediffusion): 15 mm | zone of inhibition at 360 µg/disc (MRSA NRS121; Average, prediffusion): 17.3 ± 0.4 mm
